The text below walks through data of US11254690B2, “PTEFb inhibiting macrocyclic compounds” (BAYER AKTIENGESELLSCHAFT, priority 2017, dated 2022).

Several values for one entry are separate records, joined by “and”; a condition that tells them apart may be missing. Equal entries are not always repeated.

One test has as its system HeLa-MaTu-ADR cells. The test is described as follows: Proliferation assay, HeLa-MaTu-ADR. As to conditions: Homo sapiens, 96 h; 4 days, crystal violet; read-out: Inhibition of HeLa-MaTu-ADR cell proliferation IC50. Format: cell-based. On the procedure:
Cultivated tumour cells (HeLa, human cervical tumour cells, ATCC CCL-2; NCI-H460, human non-small cell lung carcinoma cells, ATCC HTB-177; DU 145, hormone-independent human prostate carcinoma cells, ATCC HTB-81; HeLa-MaTu-ADR, multidrug-resistant human cervical carcinoma cells, EPO-GmbH Berlin; Caco-2, human colorectal carcinoma cells, ATCC HTB-37; B16F10, mouse melanoma cells, ATCC CRL-6475) were plated at a density of 5,000 cells/well (DU145, HeLa-MaTu-ADR), 3,000 cells/well (NCI-H460, HeLa), 1,500 cells/well (Caco-2), or 1,000 cells/well (B16F10) in a 96-well multititer plate in 200 μL of their respective growth medium supplemented 10% fetal calf serum. After 24 hours, the cells of one plate (zero-point plate) were stained with crystal violet (see below), while the medium of the other plates was supplemented with the test substances in various concentrations (0 μM, as well as in the range of 0.0001-10 μM; the final concentration of the solvent dimethyl sulfoxide was adjusted to 0.1%) using a Hewlett-Packard HP D300 Digital Dispenser. The cells were incubated for 4 days in the presence of test substances. Cell proliferation was determined by staining the cells with crystal violet: the cells were fixed by adding 20 μl/measuring point of an 11% glutaric aldehyde solution for 15 minutes at room temperature. After three washing cycles of the fixed cells with water, the plates were dried at room temperature. The cells were stained by adding 100 μl/measuring point of a 0.1% crystal violet solution (pH 3.0). After three washing cycles of the stained cells with water, the plates were dried at room temperature. The dye was dissolved by adding 100 μl/measuring point of a 10% acetic acid solution. The extinction was determined by photometry at a wavelength of 595 nm. The change of cell number, in percent, was calculated by normalization of the measured values to the extinction values of the zero-point plate (=0%) and the extinction of the untreated ([…]) cells (=100%). The IC50 values (inhibitory concentration at 50% of maximal effect) were determined by means of a 4 parameter fit. A2780 human ovarian carcinoma cells (ECACC #93112519) and non-adherent MOLM-13 human acute myeloid leukemia cells (DSMZ ACC 554) were seeded at a density of 3,000 cell/well (A2780) or 5,000 cells/well (MOLM-13) in a 96-well multititer plate in 150 μL of growth medium supplemented 10% fetal calf serum. After 24 hours, cell viability of one plate (zero-point plate) was determined with the Cell Titre-Glo Luminescent Cell Viability Assay (Promega), while the medium of the other plates was supplemented with the test substances in various concentrations (0 μM, as well as in the range of 0.0001-10 μM; the final concentration of the solvent dimethyl sulfoxide was adjusted to 0.1%) using a Hewlett-Packard HP D300 Digital Dispenser. Cell viability was assessed after 72-hour exposure with the Cell Titre-Glo Luminescent Cell Viability Assay (Promega). IC50 values (inhibitory concentration at 50% of maximal effect) were determined by means of a 4 parameter fit on measurement data which were normalized to vehicle (DMSO) treated cells (=100%) and measurement readings taken immediately before compound exposure (=0%).

Test [1] has as its target T1, human PTEFb (CDK9/Cyclin T1) (Homo sapiens, UniProt P50750).
T1 construct: purchased ProQinase, Freiburg, Germany
Put plainly: Surface Plasmon Resonance PTEFb. As to conditions: SPR, 37° C.; for residence time / Target residence time: 1/koff; for residence time / koff / Target residence time / Dissociation rate constant koff: * = arithmetic means; for residence time: read-out: Target residence time; for Kd: * = arithmetic means of more than one value, read-out: Equilibrium dissociation constant KD; for koff / Dissociation rate constant koff: < = below what is resolvable; for koff: read-out: Dissociation rate constant koff. Format: binding. From the text:
8. Surface Plasmon Resonance PTEFb
The term “surface plasmon resonance”, as used herein, refers to an optical phenomenon that allows for the analysis of the reversible associations of biological molecules in real time within a biosensor matrix, for example using the Biacore® system (GE Healthcare Biosciences, Uppsala, Sweden). Biacore® uses the optical properties of surface plasmon resonance (SPR) to detect alterations in the refractive index of a buffer, which changes as molecules in solution interact with the target immobilized on the surface. In brief, proteins are covalently bound to the dextran matrix at a known concentration and a ligand for the protein is injected through the dextran matrix. Near infrared light, directed onto the opposite side of the sensor chip surface is reflected and also induces an evanescent wave in the gold film, which in turn, causes an intensity dip in the reflected light at a particular angle known as the resonance angle. If the refractive index of the sensor chip surface is altered (e.g. by compound binding to the bound protein) a shift occurs in the resonance angle. This angle shift can be measured.
The term “KD”, as used herein, is intended to refer to the equilibrium dissociation constant of a particular compound/target protein complex.
The term “koff”, as used herein, is intended to refer to the off-rate, i.e. the dissociation rate constant of a particular compound/target protein complex.
The term “target residence time”, as used herein, is intended to refer to the inverse of the rate of dissociation rate constant (1/koff) of a particular compound/target protein complex.
The ability of the compounds according to the invention to bind human PTEFb may be determined using surface plasmon resonance (SPR). KD values and koff values may be measured using a Biacore® T200 instrument (GE Healthcare, Uppsala, Sweden).
For SPR measurements, recombinant human PTEFb (CDK9/Cyclin T1 recombinant human active protein kinase purchased from ProQinase, Freiburg, Germany) is immobilized using standard amine coupling (Johnsson B et al, Anal Biochem. 1991 Nov. 1; 198(2):268-77). Briefly, carboxymethylated dextran biosensor chips (CM7, GE Healthcare) are activated with N-ethyl-N′-(3-dimethylaminopropyl)-carbodiimide hydrochloride (EDC) and N-hydroxysuccinimide (NHS) according to the supplier's instructions. Human PTEFb is diluted in 1×HBS-EP+ (GE Healthcare) and injected on the activated chip surface. Subsequently, a 1:1 solution of 1 M ethanolamine-HCl (GE Healthcare) and 1×HBS-EP is injected to block unreacted groups, resulting in approximately 4000 response units (RU) of immobilized protein. A reference surface is generated by treatment with NHS-EDC and ethanolamine-HCl. Compounds are dissolved in 100% dimethylsulfoxide (DMSO, Sigma-Aldrich, Germany) to a concentration of 10 mM and subsequently diluted in running buffer (1×HBS-EP+pH 7.4 [generated from HBS-EP+ Buffer 10× (GE Healthcare): 0.1 M HEPES, 1.5 M NaCl, 30 mM EDTA and 0.5% v/v Surfactant P20], 1% v/v DMSO). For kinetic measurements, serial dilutions of compound (0.78 nM up to 25 nM) are injected over immobilized protein. Binding kinetics is measured at 37° C. with a flow rate of 100 μl/min in running buffer. Compound concentrations are injected for 70 s followed by a dissociation time of 1100 s. The resulting sensorgrams are double-referenced against the reference surface as well as against blank injections.
The double-referenced sensorgrams are fit to a simple reversible Langmuir 1:1 reaction mechanism as implemented in the Biacore® T200 evaluation software 2.0 (GE Healthcare). In cases were full compound dissociation has not occurred at the end of the dissociation phase, the Rmax parameter (response at saturation) is fit as local variable. In all other cases, Rmax is fit as global variable.

T1 sequence (P50750 whole entry): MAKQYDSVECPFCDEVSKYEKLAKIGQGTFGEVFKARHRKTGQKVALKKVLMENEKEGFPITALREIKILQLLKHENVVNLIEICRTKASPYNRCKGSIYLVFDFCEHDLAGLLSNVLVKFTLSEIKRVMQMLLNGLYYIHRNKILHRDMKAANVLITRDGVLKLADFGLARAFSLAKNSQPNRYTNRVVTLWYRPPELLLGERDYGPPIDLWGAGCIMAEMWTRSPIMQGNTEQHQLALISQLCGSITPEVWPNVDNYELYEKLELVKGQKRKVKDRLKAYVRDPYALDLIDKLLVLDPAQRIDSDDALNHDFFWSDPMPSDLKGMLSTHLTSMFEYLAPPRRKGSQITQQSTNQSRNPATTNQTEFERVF
T1 sequence (O60563 whole entry partner): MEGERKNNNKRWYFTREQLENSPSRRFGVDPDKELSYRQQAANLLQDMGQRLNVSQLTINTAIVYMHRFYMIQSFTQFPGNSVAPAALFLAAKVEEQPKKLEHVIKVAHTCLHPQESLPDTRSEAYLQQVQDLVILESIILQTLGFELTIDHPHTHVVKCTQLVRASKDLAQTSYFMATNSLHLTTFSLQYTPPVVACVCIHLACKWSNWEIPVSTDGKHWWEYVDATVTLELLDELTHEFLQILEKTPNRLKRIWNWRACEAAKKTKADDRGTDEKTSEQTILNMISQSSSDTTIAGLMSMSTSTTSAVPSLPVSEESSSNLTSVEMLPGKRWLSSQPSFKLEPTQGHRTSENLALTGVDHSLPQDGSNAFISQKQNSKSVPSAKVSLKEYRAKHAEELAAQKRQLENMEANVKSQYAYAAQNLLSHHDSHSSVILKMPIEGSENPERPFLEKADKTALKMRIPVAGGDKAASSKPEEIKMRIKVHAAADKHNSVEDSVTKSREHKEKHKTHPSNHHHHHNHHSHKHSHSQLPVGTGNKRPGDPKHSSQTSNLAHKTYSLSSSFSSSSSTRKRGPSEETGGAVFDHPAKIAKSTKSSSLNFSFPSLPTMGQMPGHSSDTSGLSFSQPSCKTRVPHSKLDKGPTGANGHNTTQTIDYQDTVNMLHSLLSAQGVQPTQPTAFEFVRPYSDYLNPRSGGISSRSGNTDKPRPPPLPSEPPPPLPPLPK

On to `CS(=N)(=O)Cc1cc2cc(c1)OCCCOc1cc(ccc1F)-c1nc(ncc1F)N2` (racemic) [Example 10, (rac)-3,19-difluoro-10-[(S-methylsulfonimidoyl)methyl]-13,17-dioxa-5,7,24-triazatetracyclo[16.3.1.1^2,6.1^8,12]tetracosa-1(22),2(24),3,5,8(23),9,11,18,20-nonaene], for which, in the test with HeLa-MaTu-ADR cells, the IC50 came out at 155 nM.

Regarding `CC1CCCOc2cc(ccc2F)-c2cc(ncc2F)Nc2cc(CS(C)(=N)=O)cc(n2)O1` (single isomer, unassigned) [Example 17, 3,20-difluoro-14-methyl-10-[(S-methylsulfonimidoyl)methyl]-13,18-dioxa-5,7,24-triazatetracyclo[17.3.1.1^2,6.1^8,12]pentacosa-1(23),2(25),3,5,8(24),9,11,19,21-nonaene], in test [1], the residence time is more than 208 min, the Kd worked out at 0.077 nM and the koff was less than 8e-05 s⁻¹.

For `CC1CCCCOc2cc(ccc2F)-c2cc(ncc2F)Nc2cc(CS(C)(=N)=O)cc(n2)O1` (single isomer, unassigned) [Example 22, 3,21-difluoro-14-methyl-10-[(S-methylsulfonimidoyl)methyl]-13,19-dioxa-5,7,25-triazatetracyclo[18.3.1.1^2,6.1^8,12]hexacosa-1(24),2(26),3,5,8(25),9,11,20,22-nonaene], in test [1], the Target residence time is recorded as 43* min, the equilibrium dissociation constant (Kd) came out at 0.19 nM and the “Dissociation rate constant koff” value was 3.9E−4* 1/s.

For `CC1CCCOc2cc(ccc2F)-c2cc(ncc2F)Nc2cc(CS(C)(=O)=O)cc(n2)O1` (racemic) [Example 28, 3,20-difluoro-14-methyl-10-[(methylsulfonyl)methyl]-13,18-dioxa-5,7,24-triazatetracyclo[17.3.1.1^2,6.1^8,12]pentacosa-1(23),2(25),3,5,8(24),9,11,19,21-nonaene], in test [1], the Kd is 0.092 nM and 0.091 nM and 0.12 nM.

As for `CC1CCCCOc2cc(ccc2F)-c2cc(ncc2F)Nc2cc(CS(C)(=N)=O)cc(n2)O1` (single isomer, unassigned) [Example 21, 3,21-difluoro-14-methyl-10-[(S-methylsulfonimidoyl)methyl]-13,19-dioxa-5,7,25-triazatetracyclo[18.3.1.1^2,6.1^8,12]hexacosa-1(24),2(26),3,5,8(25),9,11,20,22-nonaene], in test [1], the Target residence time is reported as 10* min, the Kd came to 1 nM and the “Dissociation rate constant koff” value is recorded as 1.6E−3* 1/s.

`CC(C)(C)OC(=O)N=S(C)(=O)Cc1cc2cc(c1)OCCCCOc1cc(ccc1F)-c1nc(ncc1F)N2` (racemic) [Example 3, (rac)-tert-butyl [{[3,20-difluoro-13,18-dioxa-5,7,25-triazatetracyclo[17.3.1.1^2,6.1^8,12]pentacosa-1(23),2(25),3,5,8(24),9,11,19,21-nonaen-10-yl]methyl}(methyl)oxido-λ^6-sulfanylidene]carbamate]: the IC50 in the test with HeLa-MaTu-ADR cells amounted to 218 nM.

With `CS(=N)(=O)Cc1cc2cc(c1)OCCCCOc1c(F)ccc(c1F)-c1nc(ncc1F)N2` (racemic) [Example 8, (rac)-3,20,23-trifluoro-10-[(S-methylsulfonimidoyl)methyl]-13,18-dioxa-5,7,25-triazatetracyclo[17.3.1.1^2,6.1^8,12]pentacosa-1(23),2(25),3,5,8(24),9,11,19,21-nonaene], in the test with HeLa-MaTu-ADR cells, the IC50 was 179 nM.

On to `CC1CCCOc2cc(ccc2F)-c2cc(ncc2F)Nc2cc(CS(C)(=N)=O)cc(n2)O1` (single isomer, unassigned) [Example 16, 3,20-difluoro-14-methyl-10-[(S-methylsulfonimidoyl)methyl]-13,18-dioxa-5,7,24-triazatetracyclo[17.3.1.1^2,6.1^8,12]pentacosa-1(23),2(25),3,5,8(24),9,11,19,21-nonaene], for which, in test [1], the Target residence time is > 208 min and 131 min; the “Dissociation rate constant koff” value was < 8e-05 s⁻¹ and 0.00013 s⁻¹.

On to `CS(=N)(=O)Cc1cc2nc(c1)OCCCCOc1cc(ccc1F)-c1cc(ncc1F)N2` (racemic) [Example 2, (rac)-3,20-difluoro-10-[(S-methylsulfonimidoyl)methyl]-13,18-dioxa-5,7,24-triazatetracyclo[17.3.1.1^2,6.1^8,12]pentacosa-1(23),2(25),3,5,8(24),9,11,19,21-nonaene], for which the IC50 in the test on HeLa-MaTu-ADR cells is 78 nM. In addition, in test [1], the residence time was 75 min, the Kd amounted to 1.2 nM and the koff turned out to be 0.00022 s⁻¹.

With `CS(=N)(=O)Cc1cc2cc(c1)OCCCCCOc1cc(ccc1F)-c1nc(ncc1F)N2` (racemic) [Example 6, (rac)-3,21-difluoro-10-[(S-methylsulfonimidoyl)methyl]-13,19-dioxa-5,7,26-triazatetracyclo[18.3.1.1^2,6.1^8,12]hexacosa-1(24),2(26),3,5,8(25),9,11,20,22-nonaene], the IC50 in the test on HeLa-MaTu-ADR cells turned out to be 169 nM.

Take `CC(C)(C)OC(=O)N=S(C)(=O)Cc1cc2cc(c1)OCCCCCOc1cc(ccc1F)-c1nc(ncc1F)N2` (racemic) [Example 5, (rac)-tert-butyl [{[3,21-difluoro-13,19-dioxa-5,7,26-triazatetracyclo[18.3.1.1^2,6.1^8,12]hexacosa-1(24),2(26),3,5,8(25),9,11,20,22-nonaen-10-yl]methyl}(methyl)oxido-λ^6-sulfanylidene]carbamate]: the IC50 in the test on HeLa-MaTu-ADR cells was determined as 1000 nM.
